Experimental data from patent publication US20240376097A1, “BCL-2 Inhibitor” (BeiGene Ltd., priority 2020, published 2024).
Read-outs that look alike come from different tables or passages of the source.

Experiments:
[1] = tested on: RS4;11 (BCL-2 dependent acute lymphoblastic leukemia cell line); experiment: RS4;11 Cell Proliferation Assay; assay type: cell-based; conditions: read-out: Cellular proliferation assay (IC50, nM) RS4
Method: Biological Example: RS4;11 Cell Proliferation Assay
The BCL-2 dependent acute lymphoblastic leukemia (ALL) cell line, RS4;11, was used to study the cellular potency of BCL-2 inhibitors. The cells (ATCC, CRL-1873) were cultured in RPMI-1640 complete medium (RPMI-1640 medium, HEPES (Gibco, 22400-105) supplemented with 10% fetal bovine serum (FBS) (Gibco, 10099-1441), 100 unit/ml penicillin and 100 μg/ml streptomycin (Gibco, 15140122)) and maintained in a humidified chamber at 37° C. containing 5% CO2. Each compound was serially diluted with 1 μM as the maximum concentration. To test the apoptotic effect of the compounds, the cells were seeded at 50,000 in 180 μl per well in 96-well plates and treated with 10-point dilution series of each compound for 48 hrs at 37° C. Cell viability was assessed after the treatment using CellTiter-GLO luminescent assay (Promega) according to the manufacturer's recommendations. Briefly, 30 μl of CellTiter-GLO reagent was added into 200 μl of cell culture. Mixture was agitated on an orbital shaker for 5 min to ensure cell lysis followed by 7 min incubation at room temperature to allow development and stabilization of luminescent signals, which corresponded to the quantity of ATP and thus the quantity of metabolically active cells. Luminescent signals were measured using PHERAstar FS reader (BMG). Mean IC50 values were determined with GraphPad Prism software.

[2] = tested on: recombinant human Bcl-2-G101V protein; experiment: Bcl-2-G101V TR-FRET Assay; assay type: binding; conditions: ratio of biochemical IC50 Bcl-2 G101V / Bcl-2 WT
Method: (§1) Biological Example: Bcl-2-G101V TR-FRET Assay
(§2) […]. The TR-FRET signals (ex337 nm, em490 nm/520 nm) were read on BMG PHERAstar FSX instrument. The inhibition percentage of Bcl-2-G101V interaction with its ligand in presence of increasing concentrations of compounds was calculated based on the ratio of fluorescence at 490 nm to that at 520 nm. The IC50 for each compound was derived from fitting the data to the four-parameter logistic equation by Graphpad Prism software or Dotmatics.

[3] = molecular target: recombinant human Bcl-2-G101V protein (Homo sapiens (Human), UniProt P10415, G101V); experiment: Bcl-2-G101V TR-FRET Assay; assay type: binding; conditions: Bcl-2 G101V mutant, TR-FRET; read-out: Biochemical assay (IC50, nM) Bcl-2 G101V
Method: as §1, §2

[4] = molecular target: Recombinant human Bcl-2 protein (Homo sapiens (Human), UniProt P10415); experiment: Bcl-2 TR-FRET Assay; assay type: binding
Method: Biological Example: Bcl-2 TR-FRET Assay
Compounds disclosed herein were tested for blocking of Bcl-2 protein with its ligand in an assay based on Time-Resolved Fluorescence Resonance Energy Transfer (TR-FRET) methodology. Recombinant human 0.05 nM Bcl-2 protein was pre-incubated with a serial dilution of compounds disclosed herein (top final concentration is 1 uM or 0.1 uM or 0.02 uM or 0.01 uM, 10 points) at room temperature for 0.5 hour in an assay buffer containing 20 mM potassium phosphate buffer, pH 7.5, 50 mM NaCl. 1 mM EDTA, 0.05% Tween-20, 0.01% BSA. Then the FITC labeled Bak peptide Ac-GQVGRQLAIIGDK(FITC)INR-amide (0.5 nM) and MAb Anti 6His Tb cryptate Gold were added to plate and further incubated at room temperature for 1 hour. The TR-FRET signals (337 nm-520 nm-490 nm) were read on BMG PHERAstar FSX instrument. The inhibition percentage of Bcl-2 interaction with its ligand in presence of increasing concentrations of compounds was calculated based on the TR-FRET signals. The IC50 for each compound was derived from fitting the data to the four-parameter logistic equation by Graphpad Prism software or Dotmatics.

[5] = molecular target: recombinant human Bcl-2 D103Y protein (Homo sapiens (Human), UniProt P10415, D103Y); experiment: Bcl-2-D103Y Biochemical Assay (TR-FRET); assay type: binding; conditions: for IC50: TR-FRET, FITC labeled Bak peptide; for Ratio of Bcl-2 D103Y/Bcl-2 WT: ratio of IC50
Method: Biological Example: Bcl-2-D103Y Biochemical Assay
as §2, with “Bcl-2 D103Y” for “Bcl-2-G101V”, “by” for “by Graphpad Prism software or”

[6] = Bcl-2 wild type, TR-FRET, read-out: Biochemical assay (IC50, nM) Bcl-2 WT
[7] = wild type Bcl-2, unit inferred, read-out: Bcl-2 WT

Row | Compound | IC50 ([1]; Homo sapiens, RS4-11, RS4;11 cells) [nM] | Ratio of Bcl-2 G101V/WT [2] | IC50 [3] [nM] | IC50 [4, 6] [nM] | IC50 [5] [pM] | Ratio of Bcl-2 D103Y/Bcl-2 WT [5] | IC50 [4, 7] [nM] | IC50 ([1]; RS4;11 cells) [nM]
1 | CC(C)c1ccccc1C1CN(c2ccccc2)CCN1C1CC2(CCN(c3ccc(C(=O)NS(=O)(=O)c4ccc(NC[C@H]5CC[C@](C)(O)CC5)c([N+](=O)[O-])c4)c(Oc4cnc5[nH]ccc5c4)c3)CC2)C1 (stereo partly shown) [Example 65, 2-((1H-pyrrolo[2,3-b]pyridin-5-yl)oxy)-N-((4-((((1r,4r)-4-hydroxy-4-methylcyclohexyl)methyl)amino)-3-nitrophenyl)sulfonyl)-4-(2-(2-(2-isopropylphenyl)-4-phenylpiperazin-1-yl)-7-azaspiro [3.5]nonan-7-yl)benzamide] | 5.9 | 62.8 | 54 | 0.86 | – | – | – | –
2 | CC(C)c1ccccc1C1CN(Cc2ccc(OC(F)(F)F)cc2)CCN1C1CC2(CCN(c3ccc(C(=O)NS(=O)(=O)c4ccc(NC[C@H]5CC[C@](C)(O)CC5)c([N+](=O)[O-])c4)c(Oc4cnc5[nH]ccc5c4)c3)CC2)C1 (stereo partly shown) [Example 39, 2-((1H-pyrrolo[2,3-b]pyridin-5-yl)oxy)-N-((4-((((1r,4r)-4-hydroxy-4-methylcyclohexyl)methyl)amino)-3-nitrophenyl)sulfonyl)-4-(2-(2-(2-isopropylphenyl)-4-(4-(trifluoromethoxy)benzyl)piperazin-1-yl)-7-azaspiro[3.5]nonan-7-yl)benzamide] | – | 6.1 | 6.7 | 1.1 | 3800 | 3.5 | 1.1 | –
3 | CNc1ccc(CN2CCN(C3CC4(C3)CN(c3ccc(C(=O)NS(=O)(=O)c5ccc(NC[C@H]6CC[C@](C)(O)CC6)c([N+](=O)[O-])c5)c(Oc5cnc6[nH]cc(F)c6c5)c3)C4)[C@H](c3ccccc3C(C)C)C2)cc1OC [Example 358, 2-((3-fluoro-1H-pyrrolo[2,3-b]pyridin-5-yl)oxy)-N-((4-((((1r,4r)-4-hydroxy-4-methylcyclohexyl)methyl)amino)-3-nitrophenyl)sulfonyl)-4-(6-((R)-2-(2-isopropylphenyl)-4-(3-methoxy-4-(methylamino)benzyl)piperazin-1-yl)-2-azaspiro[3.3]heptan-2-yl) benzamide] | – | 2.4 | 0.24 | 0.1 | 110 | 1.1 | 0.1 | –
4 | COc1cc(CN2CCN(C3CC4(CCN(c5ccc(C(=O)NS(=O)(=O)c6ccc(NC[C@H]7CC[C@](C)(O)CC7)c([N+](=O)[O-])c6)c(Oc6cnc7[nH]ccc7c6)c5)CC4)C3)[C@H](c3ccccc3C(C)C)C2)cc2c1OCC2(C)C [Example 286, 2-((1H-pyrrolo[2,3-b]pyridin-5-yl)oxy)-N-((4-((((1r,4r)-4-hydroxy-4-methylcyclohexyl)methyl)amino)-3-nitrophenyl)sulfonyl)-4-(2-((R)-2-(2-isopropylphenyl)-4-((7-methoxy-3,3-dimethyl-2,3-dihydrobenzofuran-5-yl)methyl)piperazin-1-yl)-7-azaspiro[3.5]nonan-7-yl)benzamide] | – | 4.8 | 0.48 | 0.1 | 190 | 1.9 | 0.1 | –
5 | CC(C)c1ccccc1C1CN(C(C)c2ccccc2)CCN1C1CC2(CCN(c3ccc(C(=O)NS(=O)(=O)c4ccc(NC[C@H]5CC[C@](C)(O)CC5)c([N+](=O)[O-])c4)c(Oc4cnc5[nH]ccc5c4)c3)CC2)C1 (single isomer, unassigned) [Example 24a, 2-((1H-pyrrolo[2,3-b]pyridin-5-yl)oxy)-N-((4-((((1r,4r)-4-hydroxy-4-methylcyclohexyl)methyl)amino)-3-nitrophenyl)sulfonyl)-4-(2-(2-(2-isopropylphenyl)-4-(1-phenylethyl)piperazin-1-yl)-7-azaspiro[3.5]nonan-7-yl)benzamide] | – | 18.6 | 6.9 | 0.37 | – | – | – | 3.4
6 | CC(C)c1ccccc1[C@@H]1CN(Cc2ccc(C3CCOC3)cc2)CCN1C1CC2(C1)CN(c1ccc(C(=O)NS(=O)(=O)c3ccc(NCC4CCC(C)(O)CC4)c([N+](=O)[O-])c3)c(Oc3cnc4[nH]cc(F)c4c3)c1)C2 (stereo partly drawn) [Example 371, 2-((3-fluoro-1H-pyrrolo[2,3-b]pyridin-5-yl)oxy)-N-((4-((((1r,4r)-4-hydroxy-4-methylcyclohexyl)methyl)amino)-3-nitrophenyl)sulfonyl)-4-(6-((2R)-2-(2-isopropylphenyl)-4-(4-(tetrahydrofuran-3-yl)benzyl)piperazin-1-yl)-2-azaspiro[3.3]heptan-2-yl)benzamide] | – | 2.7 | 0.32 | 0.12 | 310 | 2.6 | – | –
7 | COc1ccc(CN2CCN(C3CC4(CCN(c5ccc(C(=O)NS(=O)(=O)c6ccc(NCC7(F)CCC(C)(O)CC7)c([N+](=O)[O-])c6)c(Oc6cnc7[nH]ccc7c6)c5)CC4)C3)[C@H](c3ccccc3C(C)C)C2)cc1 (stereo partly drawn) [Example 226, (R)-2-((1H-pyrrolo[2,3-b]pyridin-5-yl)oxy)-N-((4-(((1-fluoro-4-hydroxy-4-methylcyclohexyl)methyl)amino)-3-nitrophenyl)sulfonyl)-4-(2-(2-(2-isopropylphenyl)-4-(4-methoxybenzyl)piperazin-1-yl)-7-azaspiro[3.5]nonan-7-yl) benzamide] | – | 3.9 | 0.64 | 0.17 | 160 | 1 | 0.17 | –
8 | CC(C)c1ccccc1C1CN(Cc2cccc3c2OC(F)(F)O3)CCN1C1CC2(CCN(c3ccc(C(=O)NS(=O)(=O)c4ccc(NC[C@H]5CC[C@](C)(O)CC5)c([N+](=O)[O-])c4)c(Oc4cnc5[nH]ccc5c4)c3)CC2)C1 (stereo partly shown) [Example 129, 2-((1H-pyrrolo[2,3-b]pyridin-5-yl)oxy)-4-(2-(4-((2,2-difluorobenzo [d][1,3]dioxol-4-yl)methyl)-2-(2-isopropylphenyl)piperazin-1-yl)-7-azaspiro[3.5]nonan-7-yl)-N-((4-((((1r,4r)-4-hydroxy-4-methylcyclohexyl)methyl)amino)-3-nitrophenyl)sulfonyl)benzamide] | – | 4.4 | 7.8 | 1.8 | – | – | – | –
9 | COc1ccc(N2CCCC(N3CCN(C4CC5(CCN(c6ccc(C(=O)NS(=O)(=O)c7ccc(NC[C@H]8CC[C@](C)(O)CC8)c([N+](=O)[O-])c7)c(Oc7cnc8[nH]ccc8c7)c6)CC5)C4)C(c4ccccc4C(C)C)C3)C2)cc1 (stereo partly shown) [Example 139, 2-((1H-pyrrolo[2,3-b]pyridin-5-yl)oxy)-N-((4-((((1r,4r)-4-hydroxy-4-methylcyclohexyl)methyl)amino)-3-nitrophenyl)sulfonyl)-4-(2-(2-(2-isopropylphenyl)-4-(1-(4-methoxyphenyl)piperidin-3-yl)piperazin-1-yl)-7-azaspiro[3.5]nonan-7-yl)benzamide] | – | 8.7 | 5.6 | 0.65 | – | – | – | –
